{
  "source": "the supplement of paper PMC10307832",
  "assay_in_all_cases": "relative viability (nuclei count vs DMSO), 5 days (fraction); higher = more cells survive",
  "key": {"[1]": {"compound": "COc1cc2nc(N3CCCN(C)CC3)nc(NC3CCN(Cc4ccccc4)CC3)c2cc1OC + CC(=O)Nc1cccc(-n2c(=O)n(C3CC3)c(=O)c3c(Nc4ccc(I)cc4F)n(C)c(=O)c(C)c32)c1 [Trametinib] (partner 0.02 µM)", "how_it_was_run": "(§1)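 Lung cancer cell lines in 1536-well plates were dosed by pin tool the day after seeding, either with one drug alone or with a fixed anchor-drug dose plus five library-drug doses (not always all listed) in √10 steps. After 5 days, cells were fixed and their nuclei stained in one step (final 0.05% Triton X-100, 1% formaldehyde, 1 ug/ml Hoechst), then counted on 4× images. Relative viability is the nuclei count in treated wells divided by that in vehicle wells. Values are medians of duplicate plates.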"}, "[2]": {"compound": "COc1cc2nc(N3CCCN(C)CC3)nc(NC3CCN(Cc4ccccc4)CC3)c2cc1OC + CS(=O)(=O)CCNCc1ccc(-c2ccc3ncnc(Nc4ccc(OCc5cccc(F)c5)c(Cl)c4)c3c2)o1 [Lapatinib] (partner 2 µM)", "how_it_was_run": "as §1"}, "[3]": {"compound": "COc1cc2nc(N3CCCN(C)CC3)nc(NC3CCN(Cc4ccccc4)CC3)c2cc1OC + CS(=O)(=O)N1CCN(Cc2cc3nc(-c4cccc5[nH]ncc45)nc(N4CCOCC4)c3s2)CC1 [Pictilisib] (partner 1 µM)", "how_it_was_run": "as §1"}, "AZD6482 + Trametinib": {"compound": "Cc1cc([C@@H](C)Nc2ccccc2C(=O)O)c2nc(N3CCOCC3)cc(=O)n2c1 [AZD6482] + CC(=O)Nc1cccc(-n2c(=O)n(C3CC3)c(=O)c3c(Nc4ccc(I)cc4F)n(C)c(=O)c(C)c32)c1 [Trametinib] (partner 0.02 µM)", "how_it_was_run": "as §1"}},
  "data": [
    {"cell line": "UMC-11", "values": [
      {"measurement": "relative viability", "setting": "[1]; first compound 0.2 µM", "result": 0.741},
      {"measurement": "relative viability", "setting": "[1]; first compound 0.6325 µM", "result": 0.729},
      {"measurement": "relative viability", "setting": "[1]; first compound 2 µM", "result": 0.836},
      {"measurement": "relative viability", "setting": "[1]; first compound 6.325 µM", "result": 0.517},
      {"measurement": "relative viability", "setting": "[2]; first compound 0.2 µM", "result": 0.93},
      {"measurement": "relative viability", "setting": "[2]; first compound 0.6325 µM", "result": 1.12},
      {"measurement": "relative viability", "setting": "[2]; first compound 2 µM", "result": 1.03},
      {"measurement": "relative viability", "setting": "[2]; first compound 6.325 µM", "result": 0.656},
      {"measurement": "relative viability", "setting": "[3]; first compound 0.2 µM", "result": 0.84},
      {"measurement": "relative viability", "setting": "[3]; first compound 0.6325 µM", "result": 0.805},
      {"measurement": "relative viability", "setting": "[3]; first compound 2 µM", "result": 0.84},
      {"measurement": "relative viability", "setting": "[3]; first compound 6.325 µM", "result": 0.681},
      {"measurement": "relative viability", "setting": "AZD6482 + Trametinib; first compound 0.08 µM", "result": 0.681},
      {"measurement": "relative viability", "setting": "AZD6482 + Trametinib; first compound 0.253 µM", "result": 0.659},
      {"measurement": "relative viability", "setting": "AZD6482 + Trametinib; first compound 0.8 µM", "result": 0.705},
      {"measurement": "relative viability", "setting": "AZD6482 + Trametinib; first compound 2.53 µM", "result": 0.571},
      {"measurement": "relative viability", "setting": "AZD6482 + Trametinib; first compound 8 µM", "result": 0.9}
    ]}
  ]
}
